Measured values taken from US20260042769A1, “TRIARYL AGONISTS OF ALPHA-2 ADRENERGIC RECEPTORS” (ALCEPTOR THERAPEUTICS, INC., priority 2023, published 2026).

Target: T1, human ADRA2B receptor (Homo sapiens, UniProt P18089)
T1 construct: expressed in transfected cells
T1 sequence (P18089 1-450): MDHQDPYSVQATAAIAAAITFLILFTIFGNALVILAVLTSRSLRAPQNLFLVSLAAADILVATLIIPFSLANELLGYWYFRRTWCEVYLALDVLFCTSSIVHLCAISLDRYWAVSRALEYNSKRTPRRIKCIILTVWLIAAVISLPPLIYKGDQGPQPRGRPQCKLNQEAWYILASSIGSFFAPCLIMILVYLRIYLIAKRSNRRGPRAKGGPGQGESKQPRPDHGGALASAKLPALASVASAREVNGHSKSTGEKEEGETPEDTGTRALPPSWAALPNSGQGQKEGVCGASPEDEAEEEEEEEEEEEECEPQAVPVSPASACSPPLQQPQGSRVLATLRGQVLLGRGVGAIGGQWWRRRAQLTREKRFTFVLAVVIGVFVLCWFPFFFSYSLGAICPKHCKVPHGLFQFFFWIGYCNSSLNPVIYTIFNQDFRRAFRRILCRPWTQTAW
Experiment: GTPγS agonist assay, ADRA2B receptor
Assay type: biochemical
Settings: read-out: GTPase - Human Alpha2B EC50
Procedure, shortened: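 CHO-K1 membranes stably expressing human ADRA2B (5 μg protein) in 20 mM HEPES, 10 mM MgCl2, 200 mM NaCl with GDP, preincubated 10 min at room temperature with compound. Binding reaction 1 h at 37° C; bound label collected on GF/C filters, washed, read by scintillation counting.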

SMILES | EC50
COc1c(C)cccc1C(Cc1ccnc(C)n1)c1c[nH]cn1 (stereo not shown) [Compound 148, 4-[2-(4-imidazolyl)-2-(2-methoxy-3-tolyl)ethyl]-2-methylpyrimidine] | 50 to 500 nM
Cc1cccc([C@@H](Cc2ccc(=O)[nH]n2)c2cnc[nH]2)c1C [Compound 77, 6-[(2R)-2-(2,3-dimethylphenyl)-2-(1H-imidazol-4-yl)ethyl]-2,3-dihydropyridazin-3-one] | < 10 nM
Cc1cccc(C(Cc2ccc(Cl)cn2)c2cnc[nH]2)c1C (stereo not shown) [Compound 90, 5-chloro-2-[2-(2,3-dimethylphenyl)-2-(1H-imidazol-4-yl)ethyl] pyridine] | < 10 nM
COc1ncc(C[C@@H](c2c[nH]cn2)c2cccc(Cl)c2C)cn1 [Compound 108, 5-[(R)-2-(3-chloro-2-tolyl)-2-(4-imidazolyl)ethyl]-2-methoxy-pyrimidine] | 50 to 500 nM
COc1nccc(CC(c2c[nH]cn2)c2cccc(C#N)c2C)n1 (stereo not shown) [Compound 171, 6-[1-(4-imidazolyl)-2-(2-methoxy-4-pyrimidinyl)ethyl]-2-toluonitrile] | 50 to 500 nM
FC(F)Oc1cccc([C@@H](Cc2ccccn2)c2cnc[nH]2)c1 [Compound 38, 2-[(2R)-2-[3-(difluoromethoxy)phenyl]-2-(1H-imidazol-4-yl)ethyl]pyridine] | > 500 nM
COc1cccc(C(Cc2cccc(OC)n2)c2cnc[nH]2)c1 (stereo not shown) [Compound 25, 2-[2-(1H-imidazol-4-yl)-2-(3-methoxyphenyl)ethyl]-6-methoxypyridine] | 50 to 500 nM
COc1nccc(C[C@H](c2c[nH]cn2)c2cccc(C)c2C)n1 [Compound 53, 4-[(2S)-2-(2,3-dimethylphenyl)-2-(1H-imidazol-4-yl)ethyl]-2-methoxy-pyrimidine] | < 10 nM
Cc1cc(C[C@H](c2c[nH]cn2)c2cccc(C)c2C)no1 [Compound 136, 3-[(S)-2-(4-imidazolyl)-2-(2,3-xylyl)ethyl]-5-methyl-isoxazole] | < 10 nM
Cc1cccc(C(Cc2cccnn2)c2c[nH]cn2)c1 (stereo not shown) [Compound 228, 3-[2-(4-imidazolyl)-2-(m-tolyl)ethyl]pyridazine] | > 500 nM
FC(F)Oc1ccccc1C(Cc1ccccn1)c1c[nH]cn1 (stereo not shown) [Compound 107, 4-[1-(o-difluoro-methoxyphenyl) 2-(2-pyridyl)ethyl] imidazole] | > 500 nM
Cc1cccc(C(Cc2ccccn2)c2cnc[nH]2)c1C (stereo not shown) [Compound 50, 2-[2-(2,3-dimethylphenyl)-2-(1H-imidazol-5-yl)ethyl] pyridine] | > 500 nM
Cc1cccc([C@H](Cc2cccnc2)c2cnc[nH]2)c1C [Compound 58, 3-[(2S)-2-(2,3-dimethylphenyl)-2-(1H-imidazol-4-yl)ethyl] pyridine] | 50 to 500 nM
Cc1cc(C)nc(CC(c2cnc[nH]2)c2cccc(C)c2C)c1 (stereo not shown) [Compound 95, 2-[2-(2,3-dimethylphenyl)-2-(1H-imidazol-4-yl)ethyl]-4,6-dimethyl-pyridine] | < 10 nM
Cc1cccc([C@H](Cc2ccccn2)c2cnc[nH]2)c1C [Compound 51, 2-[(2S)-2-(2,3-dimethylphenyl)-2-(1H-imidazol-4-yl)ethyl] pyridine] | 50 to 500 nM
Cc1cncc(C[C@@H](c2cnc[nH]2)c2cccc(C)c2C)n1 [Compound 83, 2-[(2R)-2-(2,3-dimethylphenyl)-2-(1H-imidazol-4-yl)ethyl]-6-methylpyrazine] | < 10 nM

The remaining lines, values ahead:

EC50 | SMILES
> 500 nM | COc1cccc(CC(c2c[nH]cn2)c2ccnc(C)c2C)n1 (stereo not shown) [Compound 13, 4-[1-(1H-imidazol-4-yl)-2-(6-methoxypyridin-2-yl)ethyl]-2,3-dimethylpyridine]
50 to 500 nM | COc1cccc(C[C@H](c2c[nH]cn2)c2cccc(Cl)c2C)n1 [Compound 14, 2-[(2S)-2-(3-chloro-2-methylphenyl)-2-(1H-imidazol-4-yl)ethyl]-6-methoxypyridine]
50 to 500 nM | COc1cccc(C[C@@H](c2c[nH]cn2)c2cccc(C)c2F)n1 (single isomer, unassigned) [Compound 6]
50 to 500 nM | Cc1cccc([C@H](Cc2ccnc(CF)n2)c2c[nH]cn2)c1C [Compound 152, 4-[(S)-2-(4-imidazolyl)-2-(2,3-xylyl)ethyl]-2-(fluoromethyl) pyrimidine]
50 to 500 nM | Cc1cccc([C@@H](Cc2cccnc2)c2cnc[nH]2)c1Cl [Compound 61, 3-[(2R)-2-(2-chloro-3-methylphenyl)-2-(1H-imidazol-4-yl)ethyl]pyridine]
< 10 nM | COc1nccc(CC(c2c[nH]cn2)c2cccc(Cl)c2Cl)n1 (stereo not shown) [Compound 200, 4-[2-(2,3-dichlorophenyl)-2-(4-imidazolyl)ethyl]-2-methoxypyrimidine]
< 10 nM | c1ccc(C[C@H](c2cnc[nH]2)c2cccc3c2CCO3)nc1 [Compound 41, 2-[(2S)-2-(2,3-dihydro-1-benzofuran-4-yl)-2-(1H-imidazol-4-yl)ethyl]pyridine]
> 500 nM | FC(F)(F)Oc1cccc([C@H](Cc2ccccn2)c2cnc[nH]2)c1 [Compound 35, 2-[(2S)-2-(1H-imidazol-4-yl)-2-[3-(trifluoromethoxy)phenyl]ethyl] pyridine]
> 500 nM | COc1nccc(CC(c2ccc(C(F)F)cc2)c2c[nH]cn2)n1 (stereo not shown) [Compound 188, 4-{2-[p-(difluoromethyl)phenyl]-2-(4-imidazolyl)ethyl}-2-methoxypyrimidine]
> 500 nM | COc1cccc(C(Cc2cccnn2)c2c[nH]cn2)c1F (stereo not shown) [Compound 360, 3-[2-(2-fluoro-3-methoxyphenyl)-2-(4-imidazolyl)ethyl]pyridazine]
10 to 50 nM | Cc1cccc([C@@H](Cc2ccccn2)c2cnc[nH]2)c1F [Compound 40, 2-[(2R)-2-(2-fluoro-3-methylphenyl)-2-(1H-imidazol-4-yl)ethyl] pyridine]
50 to 500 nM | Cc1cccc(C(Cc2ncc(F)cn2)c2c[nH]cn2)c1C (stereo not shown) [Compound 112, 5-fluoro-2-[2-(4-imidazolyl)-2-(2,3-xylyl)ethyl] pyrimidine]
> 500 nM | C#Cc1cccc(C(Cc2cccnn2)c2c[nH]cn2)c1 (stereo not shown) [Compound 229, 3-[2-(m-ethynylphenyl)-2-(4-imidazolyl)ethyl] pyridazine]
< 10 nM | COc1cccc(C[C@@H](c2cnc[nH]2)c2cccc(OC)c2C)n1 [Compound 27, 2-[(2R)-2-(1H-imidazol-4-yl)-2-(3-methoxy-2-methylphenyl)ethyl]-6-methoxypyridine]
< 10 nM | COc1cccc(C[C@H](c2cnc[nH]2)c2cccc(C)c2OC)n1 [Compound 9, 2-[(2S)-2-(1H-imidazol-4-yl)-2-(2-methoxy-3-methylphenyl)ethyl]-6-methoxypyridine]
10 to 50 nM | COc1cccc(CC(c2c[nH]cn2)c2cccc3c2OC(F)(F)O3)n1 (stereo not shown) [Compound 125, 2,2-difluoro-4-[1-(4-imidazolyl)-2-(6-methoxy-2-pyridyl)ethyl]-2H-1,3-benzodioxole]
< 10 nM | COc1cccc(C[C@@H](c2cnc[nH]2)c2cccc(Cl)c2C)n1 [Compound 15, 2-[(2R)-2-(3-chloro-2-methylphenyl)-2-(1H-imidazol-4-yl)ethyl]-6-methoxypyridine]
10 to 50 nM | Cc1cccc([C@@H](Cc2ccccn2)c2cnc[nH]2)c1Cl [Compound 48, 2-[(2R)-2-(2-chloro-3-methylphenyl)-2-(1H-imidazol-4-yl)ethyl]pyridine]
